Experimental data taken from patent EP4775208A1, “USE OF PRMT5 INHIBITOR IN TREATMENT OF TUMORS OR CANCERS” (Apeiron Therapeutics (Hong Kong) Ltd., priority 2023, dated 2025).

Legend:
[1] = tested on: HCT-116 MTAP(-/-) deficient cells; assay: Inhibition of proliferation of HCT-116 MTAP(-/-) deficient cells (Cell-Titer Glo); type: cell-based; settings: 8 days
Procedure: Test 1: Compound's inhibitory activity on proliferation of HCT-116 MTAP(-/-) deficient cells.
Materials and Cells: HCT-116 MTAP(-/-) deficient cells obtained from Kyinno Bio (China); RPMI-1640 medium, fetal bovine serum, and penicillin-streptomycin purchased from Thermo Fisher Scientific (America); 384-well plates from PerkinElmer (America); Cell-Titer Glo assay kit from Promega (America).
Cell Culture: HCT116 MTAP(-/-) deficient cells were cultured in RPMI 1640 medium containing 10% fetal bovine serum and 1% penicillin-streptomycin at 37°C, 5% CO2. Only cells in logarithmic growth phase were used for experiments.
(§1) Cell Proliferation Inhibition Assay: The compound's inhibitory activity on HCT-116 MTAP(-/-) deficient cells was assessed using the Cell-Titer Glo assay kit. Adjusting cell concentration, 40 µL was seeded into a 384-well plate and cultured overnight at 37°C, 5% CO2. Each well received 40 nL of the compound, achieving concentrations from 0 to 10,000 nM (starting concentration 10,000 nM, 3-fold dilution, 10 points), with 0.1% DMSO. The cell plate was incubated for 8 days at 37°C, 5% CO2. Cell-Titer Glo reagent (40 µL) was added to measure cell viability.

[2] = tested on: HCT-116 MTAP wild-type cells; assay: Inhibition of proliferation of HCT-116 MTAP wild-type cells (Cell-Titer Glo); type: cell-based; settings: 8 days
Procedure: Test 2: Compound's inhibitory activity on proliferation of HCT-116 MTAP wild-type cells.
Materials and Cells: HCT-116 MTAP wild-type cells obtained from Kyinno Bio (China); RPMI-1640 medium, fetal bovine serum, and penicillin-streptomycin purchased from Thermo Fisher Scientific (America); 384-well plates from PerkinElmer (America); Cell-Titer Glo assay kit from Promega (America).
Cell Culture: HCT116 MTAP wild-type cells were cultured in RPMI 1640 medium containing 10% fetal bovine serum and 1% penicillin-streptomycin at 37°C, 5% CO2. Only cells in logarithmic growth phase were used for experiments.
as §1, with “MTAP wild-type” for “MTAP(-/-) deficient”

Row | Molecule | IC50 ([1]; Homo sapiens, HCT-116, 192 h) [nM] | IC50 ([2]; Homo sapiens, HCT-116, 192 h) [nM] | IC50 [1] [nM] | IC50 [2] [nM]
1 | CN(C(=O)c1ccc2nc(N)c3cncn3c2c1)[C@@H]1CCc2cc(C(F)(F)F)ccc21 [Example 18, (R)-4-amino-N-methy 1-N-(5-(trifluoromethy 1)-2,3-dihydro-1H-inden-1-yl)imidazo[1,5-a]quinoxaline-8-carbox amide] | 14.5 | 4330 |  | 
2 | Cc1ncc(-c2ccc3c(c2)C(C)OC[C@H]3N(C)C(=O)c2ccc3nc(N)c4cncn4c3c2)cn1 (stereo partly drawn) [Example 21, 4-amino-N-methyl-N-((4S)-1-methyl-7-(2-methylpyrimidin-5-yl)isochroman-4-yl)imid azo[1,5-a]quinoxaline-8-carboxamide] | 14.8 | 2130 |  | 
3 | C[C@H]1OC[C@@H](N(C)C(=O)c2ccc3nc(N)c4cncn4c3c2)c2cc(F)ccc21 (single isomer, unassigned) [Example 100] | 68.3 | 3580 |  | 
4 | CN(C(=O)c1ccc2nc(N)c3nncn3c2c1)[C@@H]1COc2cc(C(F)(F)F)ccc21 [Example 48, (S)-4-amino-N-methy 1-N-(6-(trifluoromethy 1)-2,3-dihydrobenzofuran-3-yl)-[1,2,4]triazo lo[4,3-a]quinoxaline-8-carboxamide] | > 3000 | > 3000 |  | 
5 | CN(C(=O)c1ccc2nc(N)c3c(Br)ncn3c2c1)[C@@H]1COc2cc(C(F)(F)F)ccc21 [Example 127, (S)-4-amino-3-bromo-N-methyl-N-(6-(trifluoromethyl)-2,3-dihydrobenzofuran-3-yl)imidazo[1,5-a]quinoxaline-8-carboxamide] | 100 | 9900 |  | 
6 | CC1OC[C@@H](N(C)C(=O)c2cc3c(cn2)nc(N)c2cncn23)c2ccc(C(F)(F)F)cc21 (stereo partly drawn) [Example 50, 4-amino-N-methyl-N-((4S)-1-methyl-7-(trifluoromethyl)isochroman-4-yl)imidazo[1,5-a]pyrido[3,4-e]pyrazine-8-carboxamide] | 4.2 | 196 |  | 
7 | CN(C(=O)c1ccc2nc(N)c3cncn3c2c1)[C@@H]1COc2cc(NS(=O)(=O)C(F)(F)F)ccc21 [Example 76, (S)-4-amino-N-methyl-N-(6-((trifluoromethyl)sulfonamido)-2,3-dihydrobenzofuran-3-yl)imida zo[1,5-a]quinoxaline-8-carboxamide] | > 3000 | > 10000 |  | 
8 | CN(C(=O)c1ccc2nc(N)n3cncc3c2c1)[C@@H]1COc2cc(C(F)(F)F)ccc21 [Example 49, (S)-5-amino-N-methy 1-N-(6-(trifluoromethy 1)-2,3-dihydrobenzofuran-3-yl)imidazo[1,5-c]quinazoline-9-carbo xamide] | 589 | > 10000 |  | 
9 | Cc1ncn2c1c(N)nc1ccc(C(=O)N(C3CC3)C3COc4cc(C(F)(F)F)ccc43)cc12 (stereo not shown) [Example 69, 4-amino-N-cyclopropyl-3-methyl-N-(6-(trifluoromethyl)-2,3-dihydrobenzofuran-3-yl)i midazo[1,5-a]quinoxa line-8-carboxamide] | 87.1 | 5020 |  | 
10 | CC1OC[C@@H](N(C)C(=O)c2ccc3nc(N)c4cncn4c3c2)c2ccc(F)cc21 (stereo partly drawn) [Example 9, 4-amino-N-((4S)-7-fluoro-1-methylisochroman-4-yl)-N-methyli midazo[1,5-a]quinoxa line-8-carboxamide] | 41.1 | 2140 |  | 
11 | CN(C(=O)c1ccc2nc(N)c3cncn3c2c1)[C@H]1COc2cc(C(F)(F)F)ccc21 [Example 51, (R)-4-amino-N-methy 1-N-(6-(trifluoromethy 1)-2,3-dihydrobenzofuran-3-yl)imidazo[1,5-a]quinoxaline-8-carbo xamide] | 213 | 5860 |  | 
12 | CC1OC[C@@H](N(C)C(=O)c2ccc3nc(N)c4cncn4c3c2)c2cccnc21 (stereo partly drawn) [Example 108, 4-amino-N-methyl-N-((5S)-8-methyl-5,8-di hydro-6H-pyrano[3,4-b]pyridin-5-yl)imidaz o[1,5-a]quinoxaline-8-carboxamide] | 121 | > 10000 |  | 
13 | CN(C(=O)c1ccc2nc(N)c3c(C(N)=O)ncn3c2c1)[C@@H]1COc2cc(C(F)(F)F)ccc21 [Example 132, (S)-4-amino-N8-methyl-N8-(6-(trifluoromethyl)-2,3-dihydrobenzofuran-3-yl)imidazo[1,5-a]quinoxaline-3,8-dicarboxamide] | > 3000 | > 10000 |  | 
14 | (R)-4-amino-N-cyclo propyl-N-(6-(trifluoro methyl)-2,3-dihydrob enzofuran-3-yl)imidaz o[1,5-a]quinoxaline-8 -carboxamide [Example 83] |  |  | 2640 | 4700
15 | CN(C(=O)c1ccc2nc(N)c3cncn3c2c1)[C@@H]1CSc2cc(C(F)(F)F)ccc21 (single isomer, unassigned) [Example 102] | 7.9 | 1990 |  | 
16 | CN(C(=O)c1cc2c(cc1F)nc(N)c1cncn12)[C@@H]1COc2cc(OC(F)(F)F)ccc21 [Example 57, (S)-4-amino-7-fluoro-N-methyl-N-(6-(trifluoromethoxy)-2,3-dihydrobenzofuran-3-yl)i midazo[1,5-a]quinoxa line-8-carboxamide] | 10.5 | 1870 |  | 
17 | Cc1ncn2c1c(N)nc1ccc(C(=O)N(C3CC3)[C@@H]3COc4cc(C(F)(F)F)ccc43)cc12 (single isomer, unassigned) [Example 86] | 61.1 | 1330 |  | 
18 | (S)-4-amino-N-methy 1-N-(6-(trifluoromethy 1)-2,3-dihydrofuro[2,3 -b]pyridin-3-yl)imida zo[1,5-a]quinoxaline-8-carboxamide [Example 90] |  |  | 36.4 | > 10000
19 | CN(C(=O)c1ccc2nc(N)c3cncn3c2c1)[C@H]1CSc2cc(C(F)(F)F)ccc21 (single isomer, unassigned) [Example 101] | 2190 | > 10000 |  | 
20 | CN(C(=O)c1ccc2nc(N)c3cncn3c2c1)[C@@H]1COc2cc(CF)ccc21 [Example 52, (S)-4-amino-N-(6-(fluoromethyl)-2,3-dihydrobenzofuran-3-yl)-N-methylimidazo[1,5-a] quinoxaline-8-carbox amide] | 123 | > 10000 |  | 
21 | Cc1ncn2c1c(N)nc1ccc(C(=O)N(C)[C@@H]3COc4ccc(F)cc43)cc12 [Example 64, (S)-4-amino-N-(5-fluoro-2,3-dihydrobenzofuran-3-yl)-N,3-dimet hylimidazo[1,5-a]quin oxaline-8-carboxamide] | 278 | > 20000 |  | 
22 | CN(C(=O)c1ccc2nc(N)c3cncn3c2c1)C1COCc2ccc(C(F)(F)F)cc21 (stereo not shown) [Example 8, 4-amino-N-methyl-N-(6-(trifluoromethyl)isochroman-4-yl)imidaz o[1,5-a]quinoxaline-8-carboxamide] | 106 | 6480 |  | 
23 | CC1OC[C@@H](N(C)C(=O)c2cc3c(cc2Cl)nc(N)c2cncn23)c2ccc(F)cc21 (stereo partly drawn) [Example 61, 4-amino-7-chloro-N-( (4S)-7-fluoro-1-methylisochroman-4-yl)-N-methylimidazo[1,5-a] quinoxaline-8-carbox amide] | 7.7 | 882 |  | 
24 | (S)-4-amino-N-(6-cya no-2,3-dihydrobenzof uran-3-yl)-N-cyclopro pylimidazo[1,5-a]quin oxaline-8-carboxamid e [Example 92] |  |  | 46.6 | 4750
25 | (S)-4-amino-N-(6-bromo-2,3-dihydrobenzofuran-3-yl)-N-cyclopropylimidazo[1,5-a]quinoxaline-8-carboxamide [Example 82] |  |  | 52.9 | 1920
26 | CN(C(=O)c1ccc2nc(N)c3cncn3c2c1)[C@@H]1COc2cc(S(C)(=O)=O)ccc21 [Example 28, (S)-4-amino-N-methy 1-N-(6-(methylsulfony 1)-2,3-dihydrobenzofuran-3-yl)imidazo[1,5-a]quinoxaline-8-carbo xamide] | 321 | > 10000 |  | 
27 | CC1OC[C@@H](N(C)C(=O)c2ccc3nc(N)c4cncn4c3c2)c2cc(F)ccc21 (stereo partly drawn) [Example 77, 4-amino-N-((4S)-6-fluoro-1-methylisochroman-4-yl)-N-methylimidazo[1,5-a]quinoxaline-8-carboxamide] | 101 | 4260 |  | 
28 | (R)-4-amino-N-methy 1-N-(6-(trifluoromethy 1)-2,3-dihydrofuro[2,3 -b]pyridin-3-yl)imida zo[1,5-a]quinoxaline-8-carboxamide [Example 89] |  |  | > 3000 | > 10000
29 | (R)-4-amino-N-(6-cya no-2,3-dihydrobenzof uran-3-yl)-N-cyclopro pylimidazo[1,5-a]quin oxaline-8-carboxamid e [Example 91] |  |  | 2180 | > 20000
